Test results as given in paper PMC10314922, “Fluorescence lifetime FRET assay for live-cell high-throughput screening of the cardiac SERCA pump yields multiple classes of small-molecule allosteric modulators” (Scientific Reports, 2023).
“And” between values parts separate entries of the source, which are not always exact repeats. Equal values may be shown once. “Also recorded” adds a separate entry of the source. Read-outs that look alike come from different tables or passages of the source.

How the values were obtained:
[1] = molecular target: T1, human two-color SERCA2a (2CS) biosensor (Homo sapiens, UniProt P16615, INS508[…]); assay: FRET concentration response curves (FLT-FRET) with the 2CS biosensor in live HEK cells; assay type: cell-based
T1 construct: expressed in transfected cells
Source text: A two-color intramolecular human SERCA2a (2CS) biosensor, based on human cardiac SERCA2a fused to green fluorescent protein (eGFP) and red fluorescent protein (tagRFP) was developed to detect structural changes that are related to the functional changes of SERCA[20],[22],[25]. Briefly, tagRFP was genetically fused to the N-terminus of SERCA (A-domain) and eGFP was inserted as an intrasequence tag before residue 509 in the nucleotide-binding domain (N-domain)[60],[61]. Donor-only and acceptor-only (1CS) biosensors were created in a similar manner as the 2CS biosensor but with the construct containing either only eGFP or only tag-RFP, respectively. […] A null-biosensor construct consisting of eGFP and tagRFP connected by a 32-residue unstructured flexible linker peptide (G32R) was created as described previously[23],[25]. All constructs were cloned into expression vectors containing the genes for antibiotic resistance to G418, puromycin, or blasticidin.
Stable cell lines were generated using either human embryonic kidney (HEK) HEK293 (ATCC, Manassas, VA) or HEK293-6E (National Research Council, Canada) cells. Briefly, cells were transiently transfected with 2CS, 1CS, or G32R null-biosensor plasmids using Lipofecatime 3000 or 293fectin (Thermo Fisher Scientific). Flow cytometry was used to select and enrich for the population of cells expressing respective biosensors. Stable HEK293 cell lines were maintained in phenol red-free DMEM media (Gibco, Waltham, MA) supplemented with 2 mM GlutaMAX (Gibco, Waltham, MA), 10% fetal bovine serum (FBS) (Atlanta Biologicals, Lawrenceville, GA), 1 IU/mL penicillin/streptomycin (Gibco, Waltham, MA), and 250 μg/mL G418 (Fisher Scientific). Stable HEK293-6E cell lines were maintained in F17 media (Sigma Aldrich) supplemented with Kolliphor p188 (Sigma Aldrich, St. Louis, MO), […] GlutaMAX, and either 1 μg/mL puromycin (Invitrogen, Carlsbad, CA) or 2 μg/mL blasticidin (Goldbio) as a selection antibiotic. All cell lines were grown at 37 °C with 5% CO2.
FRET CRC assay plates (0.78–100 μM compound range) with at least ten different compound concentrations were made by adding the appropriate volume of compound or DMSO into black 384 well plates (Greiner Bio-One) using a Mosquito HV (SPTLabTech, United Kingdom). Subsequent Ca^2+-ATPase activity and Ca^2+-transport CRC assay plates (0–50 μM compound range) with repurchased compounds were made in a similar manner using with the Echo 550 (Beckman Coulter) using either 384 well transparent plates (Greiner Bio-One) or black-walled plates with transparent bottoms (Greiner Bio-One), respectively.
On each day of screening, cells were harvested, washed three times with PBS, and centrifuged at 300 g for 5 min. Cells were filtered using a 70 µm cell strainer and diluted to 1–2 × 10^6 cells/mL. Cell concentration and viability were assessed using the Cell countess (Invitrogen) and trypan blue assay. During assays, cells were constantly and gently stirred using a magnetic stir bar at room temperature, keeping the cells in suspension and evenly distributed to avoid clumping. HEK 293-cells expressing 2CS were dispensed at 5 μL or […] per well into assay plates (dispensed into 40 assay plates, each containing 1536 wells) pre-plated with compounds (from a DIVERset 50,000 compound library) using a Multdrop Combi liquid dispenser (Thermo Fisher Scientific, Pittsburg, PA) and sealed until needed. Because the kinetics of membrane permeability, diffusion, and/or binding of the compound to live cells may be compound-dependent, we tested two incubation times, 20 min and 120 min, for the FRET CRC. […] Plates containing eight-point concentration curves of three tool compounds (known SERCA effectors thapsigargin, BHQ, and CPA)[22] were used as positive controls for biosensor function and performance prior to running the full-scale FRET-HTS assay. […]

SERCA2a [2] = molecular target: T2, SERCA2a (Sus scrofa, UniProt P11607); assay: NADH-linked Ca2+-ATPase activity assay in pig cardiac SR (pCSR) vesicles; assay type: biochemical; conditions: for Ca2+-ATPase C10: concentration yielding 10% effect
T2 construct: Cardiac SR vesicles were isolated from fresh porcine left ventricular tissue using differential centrifugation; from tissue; host or cells: porcine left ventricular tissue (cardiac SR vesicles)
Procedure: (§1) Cardiac SR vesicles were isolated from fresh porcine left ventricular tissue using differential centrifugation of the homogenized tissue as previously described. The SR vesicles were flash-frozen and stored at − 80 °C until needed. The SERCA concentration in the ER preparations purified from HEK cell homogenate is at least 10 times less than in purified porcine cardiac SR[20], but there was sufficient expression of the fluorescent SERCA2a biosensor in HEK cells to detect FRET with high precision by FLT[22],[23],[26].
Functional assays were performed using porcine cardiac SR (pCSR) vesicles. An enzyme-coupled, NADH-linked ATPase assay was used to measure SERCA ATPase activity in 384-well microplates. Each well contained 50 mM MOPS (pH 7.0), 100 mM KCl, 1 mM EGTA, 0.2 mM NADH, 1 mM phosphoenol pyruvate, 10 IU/mL of pyruvate kinase, 10 IU/mL of lactate dehydrogenase, 7 µM of the calcium ionophore A23187 (Sigma), and CaCl2 was added to set free [Ca^2+] to three different concentrations. Ca^2+-ATPase activity was measured at three [Ca^2+]: [Ca^2+]MAX (saturating, pCa 5.4), [Ca^2+]MID (subsaturating, midpoint, pCa 6.2), and [Ca^2+]BAS (basal non-activating, pCa 8.0). 10 μg/mL of SR vesicle, calcium, compound (0.048 to 50 μM), and assay mix were incubated for 20 min at room temperature before measurement of functional assays with each of the 18 hit compounds, because a shorter incubation time than the FRET live-cell assays achieved optimal responses. The assay was started upon the addition of MgATP, at a final concentration of 5 mM (total volume to 80 μL), and absorbance was read at 340 nm in a SpectraMax Plus^384 microplate spectrophotometer (Molecular Devices, Sunnyvale, CA).
(§2) SERCA2a activity, F (rate of ATP hydrolysis or Ca^2+ uptake), was measured at varying pCa and varying compound concentration. F measured at [Ca^2+]MAX (saturating, pCa 5.4) or [Ca^2+]MID (subsaturating, midpoint, pCa 6.2) was corrected by subtracting the basal rate at pCa 8.0) and the % effect due to compound was reported. Concentration response curves (CRC) were fitted using the Hill function to determine VMAX (the activity at saturating [compound]), and EC50, the compound concentration at 50% effect.

SERCA2a [3] = molecular target: T2, SERCA2a; assay: Oxalate-supported Fluo-4 Ca2+-uptake (Ca2+-transport) assay in pig cardiac SR (pCSR) vesicles; assay type: biochemical; conditions: for Ca2+-Uptake C10: concentration yielding 10% effect; for CR (coupling ratio) VU/VA: maximum Ca2+-uptake rate / Ca2+-ATPase rate at [Ca2+]MAX, DMSO control = 0.66; for Inhibition of Ca2+-uptake (class): strong / moderate / mild
Procedure: as §1
Ca^2+-transport assays were performed with similar porcine SR samples as in the Ca^2+-ATPase assays described above. The compound effect on the Ca^2+-transport activity of SERCA2a was determined using an oxalate-supported assay in which the change in fluorescence in a Ca^2+-sensitive dye, Fluor-4, was determined as previously described. A buffered solution containing 50 mM MOPS (pH 7.0), 100 mM KCl, 30 mg/mL sucrose, 1 mM EGTA, 10 mM potassium oxalate, 2 µM Fluo-4, 30 µg/mL porcine cardiac SR vesicles, CaCl2 calculated to reach the free [Ca^2+] (pCa 8.0, 6.2, and 5.4), and compound (0.048 to 50 μM) was dispensed into 384-well black walled, transparent bottomed plates (Greiner Bio-One) containing the tested small molecule and incubated at 22℃ for 20 min while covered and protected from light. To start the reaction, MgATP was added to a final concentration of 5 mM, and the decrease in 485-nm excited fluorescence of Fluo-4 was monitored at 520 nm for 15 min using a FLIPR Tetra (Molecular Devices, San Jose, CA).
as §2

SERCA2a [4] = molecular target: T2, SERCA2a; set-up: method as in PMID 32397211; conditions: read-out: EC50 of SERCA inhibition; cited from earlier work
[5] = [Ca2+]MID (pCa6.2), maximal compound effect vs DMSO control, pCSR
[6] = activators, categories activate / uncouple / inhibit

T1 sequence (P16615 other isoform, or with tags, fused parts or gaps with the stated changes): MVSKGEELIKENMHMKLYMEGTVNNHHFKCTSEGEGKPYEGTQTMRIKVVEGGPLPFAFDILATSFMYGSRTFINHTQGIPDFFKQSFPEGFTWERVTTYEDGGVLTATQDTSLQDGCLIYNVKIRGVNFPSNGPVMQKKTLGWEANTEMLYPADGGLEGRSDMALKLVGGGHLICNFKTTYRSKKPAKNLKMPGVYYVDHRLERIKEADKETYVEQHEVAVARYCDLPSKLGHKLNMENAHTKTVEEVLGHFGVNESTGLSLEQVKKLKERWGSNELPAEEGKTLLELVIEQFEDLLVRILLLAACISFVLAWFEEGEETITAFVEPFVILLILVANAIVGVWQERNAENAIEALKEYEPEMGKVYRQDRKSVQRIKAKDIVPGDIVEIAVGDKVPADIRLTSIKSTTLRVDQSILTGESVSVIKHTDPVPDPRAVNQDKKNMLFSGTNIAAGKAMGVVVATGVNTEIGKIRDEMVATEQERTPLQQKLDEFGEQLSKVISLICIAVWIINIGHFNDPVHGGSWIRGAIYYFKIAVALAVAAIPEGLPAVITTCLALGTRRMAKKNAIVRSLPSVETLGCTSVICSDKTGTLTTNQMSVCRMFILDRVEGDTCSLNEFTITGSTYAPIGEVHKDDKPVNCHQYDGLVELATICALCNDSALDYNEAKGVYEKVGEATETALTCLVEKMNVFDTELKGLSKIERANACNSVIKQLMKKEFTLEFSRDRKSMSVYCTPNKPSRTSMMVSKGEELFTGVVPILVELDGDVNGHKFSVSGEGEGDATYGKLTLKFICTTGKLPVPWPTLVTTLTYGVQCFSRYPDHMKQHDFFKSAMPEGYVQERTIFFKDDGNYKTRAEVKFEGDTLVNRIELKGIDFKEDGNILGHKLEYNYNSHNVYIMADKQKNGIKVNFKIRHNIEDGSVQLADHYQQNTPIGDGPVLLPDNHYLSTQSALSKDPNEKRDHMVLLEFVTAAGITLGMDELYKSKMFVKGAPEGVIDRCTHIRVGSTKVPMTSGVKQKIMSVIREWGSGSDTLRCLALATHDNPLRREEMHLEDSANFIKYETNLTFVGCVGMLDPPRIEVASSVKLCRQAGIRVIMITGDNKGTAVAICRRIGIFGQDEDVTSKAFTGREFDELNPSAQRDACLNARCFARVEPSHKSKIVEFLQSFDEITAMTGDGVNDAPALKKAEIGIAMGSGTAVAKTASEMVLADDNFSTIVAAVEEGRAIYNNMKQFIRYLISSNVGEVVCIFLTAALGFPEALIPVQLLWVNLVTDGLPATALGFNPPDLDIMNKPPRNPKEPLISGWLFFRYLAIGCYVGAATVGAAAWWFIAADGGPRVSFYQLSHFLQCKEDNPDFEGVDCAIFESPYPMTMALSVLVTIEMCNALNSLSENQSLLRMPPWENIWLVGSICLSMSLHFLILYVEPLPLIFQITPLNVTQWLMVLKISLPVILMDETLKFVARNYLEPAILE
T2 sequence (P11607 1-997 isoform P11607-2): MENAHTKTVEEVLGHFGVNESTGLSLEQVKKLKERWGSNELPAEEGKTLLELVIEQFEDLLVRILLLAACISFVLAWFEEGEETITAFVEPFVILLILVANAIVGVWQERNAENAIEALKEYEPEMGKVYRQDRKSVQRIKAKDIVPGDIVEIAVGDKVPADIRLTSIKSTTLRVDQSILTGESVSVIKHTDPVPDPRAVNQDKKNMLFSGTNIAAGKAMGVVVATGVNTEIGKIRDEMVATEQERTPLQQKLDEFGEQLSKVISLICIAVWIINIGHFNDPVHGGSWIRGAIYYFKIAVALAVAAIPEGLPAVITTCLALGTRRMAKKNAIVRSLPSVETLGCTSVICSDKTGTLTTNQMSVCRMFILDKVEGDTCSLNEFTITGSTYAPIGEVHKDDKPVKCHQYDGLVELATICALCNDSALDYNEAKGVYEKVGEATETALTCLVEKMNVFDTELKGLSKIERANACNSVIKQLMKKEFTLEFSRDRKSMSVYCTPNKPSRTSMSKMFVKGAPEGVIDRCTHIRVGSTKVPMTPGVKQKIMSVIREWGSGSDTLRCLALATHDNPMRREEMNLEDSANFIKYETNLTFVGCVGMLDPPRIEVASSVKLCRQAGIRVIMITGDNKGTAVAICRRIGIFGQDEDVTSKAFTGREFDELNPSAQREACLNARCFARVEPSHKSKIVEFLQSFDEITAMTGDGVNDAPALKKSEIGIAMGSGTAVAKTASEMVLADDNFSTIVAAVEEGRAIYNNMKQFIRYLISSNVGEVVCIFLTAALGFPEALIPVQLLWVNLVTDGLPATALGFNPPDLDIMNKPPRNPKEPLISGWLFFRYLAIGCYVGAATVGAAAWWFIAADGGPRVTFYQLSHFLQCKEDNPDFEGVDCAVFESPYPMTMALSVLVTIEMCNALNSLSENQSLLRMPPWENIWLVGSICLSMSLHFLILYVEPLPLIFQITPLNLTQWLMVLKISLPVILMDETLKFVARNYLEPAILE

Structure (SMILES)	EC50 [1] [µM]	Ca2+-ATPase C10 (SERCA2a [2]; [Ca2+]MAX (pCa5.4)) [µM]	Ca2+-ATPase C10 (SERCA2a [2]; [Ca2+]MID (pCa6.2)) [µM]	Ca2+-Uptake C10 (SERCA2a [3]; [Ca2+]MAX (pCa5.4)) [µM]	Ca2+-Uptake C10 (SERCA2a [3]; [Ca2+]MID (pCa6.2)) [µM]	CR (coupling ratio) VU/VA (SERCA2a [3])	Inhibition of Ca2+-uptake (class) (SERCA2a [3])	Increase in Ca2+-ATPase activity (SERCA2a [2])	Ca2+-ATPase ΔFMAX (SERCA2a [2]; [Ca2+]MAX (pCa5.4), maximal compound effect vs DMSO control, pCSR)	Ca2+-ATPase ΔFMID (SERCA2a [2]; [5])	Effect on Ca2+-ATPase activity (category, Fig. 4A) (SERCA2a [2]; [6])	Decrease (inhibition) of Ca2+-uptake at [Ca2+]MAX (SERCA2a [3]; [Ca2+]MAX, size of decrease) [%]	Ca2+-Uptake ΔFMID (SERCA2a [3]; [5])	Effect on Ca2+-uptake (category, Fig. 4A) (SERCA2a [3]; [6])	EC50 (SERCA2a [4]) [µM]	EC50 (SERCA2a [2]; [Ca2+]MAX (pCa5.4)) [µM]	EC50 (SERCA2a [2]; [Ca2+]MID (pCa6.2)) [µM]	EC50 (SERCA2a [3]; [Ca2+]MAX (pCa5.4)) [µM]	EC50 (SERCA2a [3]; [Ca2+]MID (pCa6.2)) [µM]
COc1ccc(Cn2cc(C(=O)N(C)Cc3ccnc4ccccc34)nn2)cc1 [Compound 10, 1-(4-methoxybenzyl)-N-methyl-N-(4-quinolinylmethyl)-1H-1,2,3-triazole-4-carboxamide]	5.6 ± 0.6	7	3.2	4.1	7.9	0.35	Mild → M; also recorded: mild-to-moderate	–	–	–	–	–	–	–	–	–	–	–	–
COc1ccc(Cc2noc(CN3CCN(c4nc5ccccc5s4)CC3)n2)cc1OC [Compound 5, 2-(4-{[3-(3,4-dimethoxybenzyl)-1,2,4-oxadiazol-5-yl]methyl}-1-piperazinyl)-1,3-benzothiazole]	1.5 ± 0.1	22.7	19.6	–	22.5	0.47	–	10–25%	25% and 25 ± 3.3%	35% and 35 ± 8.2%	activate	2	20% and 20 ± 3.3%	inhibit	–	–	–	–	–
C/C=C(/C)C(=O)O[C@H]1C(C)=C2[C@H]([C@@H]1OC(=O)CCCCCCC)[C@@](C)(OC(C)=O)C[C@H](OC(=O)CCC)[C@@]1(O)[C@H]2OC(=O)[C@@]1(C)O [Tg, thapsigargin]	–	–	–	–	–	–	–	–	–	–	–	–	–	–	~0.0075	–	–	–	–
COC(=O)CSc1ncc(-c2ccc(F)cc2)c(C2CCCN(C(=O)c3cccc(F)c3)C2)n1 (centres unmarked) [Compound 11, methyl {[4-[1-(3-fluorobenzoyl)-3-piperidinyl]-5-(4-fluorophenyl)-2-pyrimidinyl]thio}acetate]	14 ± 6.4	0.8	1.2	0.2	0.5	0.13	–	–	–	–	–	–	–	–	–	3.2 ± 0.4	3.6 ± 0.5	1.8 ± 0.04	2.8 ± 0.1
Cc1nc(N2CCCCCCC2)ncc1C(C)NC(=O)c1ccnn1C (centres unmarked) [Compound 18, N-{1-[2-(1-azocanyl)-4-methyl-5-pyrimidinyl]ethyl}-1-methyl-1H-pyrazole-5-carboxamide]	3 ± 0.3	2.2	1	8.6	22.7	0.49	Mild → M; also recorded: mild-to-moderate	–	–	–	–	–	–	–	–	–	0.18 ± 0.2	–	–
CCc1ccc(S(=O)(=O)N2CCCC(C(=O)c3sccc3C)C2)cc1 (centres unmarked) [Compound 14, {1-[(4-ethylphenyl)sulfonyl]-3-piperidinyl}(3-methyl-2-thienyl)methanone]	9.2 ± 1.1	6.3	3.2	1.3	1.7	0.16	M → S; also recorded: moderate-to-strong	–	–	–	–	–	–	–	–	13 ± 11	8.9 ± 2.2	3.4 ± 0.2	3.9 ± 0.2
CCc1cnc(N2CC[C@@H](c3ccc4ccccc4c3)[C@H](O)C2)nc1 (relative stereo) [Compound 16, (3S*,4S*)-1-(5-ethylpyrimidin-2-yl)-4-(2-naphthyl)piperidin-3-ol]	5.6 ± 0.3	0.5	4.7	1.2	4.2	0.22	M → S; also recorded: moderate-to-strong	–	–	–	–	–	–	–	–	–	–	–	–
